# Measured values from patent US9562085B2, “Antimicrobial peptide” (priority 2013, dated 2017).
# What was measured:
# MRSA LUH14616 [1] = assay: In vitro killing assay on mid-log phase bacteria, MRSA LUH14616; format: cell-based, Staphylococcus aureus; details: for killing of MRSA LUH14616, in words: comparison among peptides tested, FIGS. 2-3
# Source text: (§1) The clinical isolate of methicillin-resistant Staphylococcus aureus (MRSA), LUH14616 was kindly provided by Dr. S. Croes, Maastricht University Medical Center, Maastricht, Netherlands (see S.B.M.C. Croes, Microbiol. 2009; 9:229. doi: 10.1186/1471-2180-9-229) and that of mupirocine-resistant MRSA LUH15051 was a gift from Dr. M.E.O.C. Heck (Laboratory for Infectious Diseases and Screening, National Institute for Public Health and Environment, RIVM, Bilthoven, Netherlands).
# (§2) Bacteria were stored at -80° C. until use. Inoculi of mid-log phase bacteria were prepared by incubating isolated MRSA colonies from blood agar plates in Tryptic Soy Broth (TSB) medium (Becton Dickinson, Le Pont de Clax, France) for 2.5 hours and then diluted to the concentration needed.
# (§3) For the in vitro killing assay on mid-log phase bacteria, MRSA LUH14616 and MRSA LUH15051 were resuspended to a concentration of 1×10^6 bacteria/ml in PBS. Subsequently, 200 μl was added to a concentration range of peptides LL-37, P60.4Ac (OP-145) and P10 that were lyophilized in advance. Subsequently, the bacteria-peptide mixture was incubated for 1 hour at 37° C. To establish the killing capacity of these peptides, the suspensions were serially diluted and plated onto DST agar plates to measure viable CFU counts. IC90, IC99 and IC99.9 values are calculated by linear regression analysis.
# MRSA LUH15051 [2] = assay: In vitro killing assay on mid-log phase bacteria, mupirocine-resistant MRSA LUH15051; format: cell-based, Staphylococcus aureus; details: compared with LL-37 and P60.4Ac
# Source text: as §1, §2, §3
# S. aureus JAR = format: cell-based; details: JAR, 2 h
# Procedure: S. aureus JAR is described in Campoccia et al. (Int. J. Artif. Organs, 2008 September; 31(9):841-7).
# For the in vitro killing assay with P10 variants, S. aureus JAR ([…] CFU/ml) were incubated for 2 hours at 37° C. with various concentrations of the peptides in PBS or in PBS/human plasma (1/1, v/v). […] The LC99.9 is the average value of two independent experiments.
# MRSA LUH14616 [3] = assay: Burn wound infection model, thermally wounded human skin equivalents, MRSA LUH14616; format: cell-based, Staphylococcus aureus; details: compared with LL-37 and P60.4Ac, FIG. 4
# Procedure: (§4) Human skin equivalents were prepared as described in El Ghalbzouri et al. (Lab. Invest. 2004 January; 84(1):102-12). In brief, 5×10^5 normal human keratinocytes were seeded onto fibroblast-populated rat-tail collagen matrices. The collagen matrices were prepared in advance by making a basal (0.1% acetic acid, 4 mg/ml collagen, Hank's Balanced Salt Solution (HBSS, 10×), 1 M NaOH and FCS) and a top collagen layer in which normal human fibroblasts were seeded (4 mg/ml collagen, 10×HBSS, 1 M NaOH, FCS and fibroblasts). Transwell filters with 3 μm pore size (Corning 3414, Costar) were used to culture the human skin equivalents. The collagen matrices were cultured in fibroblast medium for a week. The full thickness human skin equivalents were first cultured submerged in keratinocyte medium for 2 or 3 days at 37° C. and 7.3% CO2 and were then cultured in keratinocyte medium as described above, but with 1% FCS and supplemented with […] L-serine, 10 mM L-carnitine, 1 μM DL-α-tocopherol-acetate, 50 μM ascorbic acid, a lipid supplement that contained palmitic acid, linoleic acid and arachidonic acid in a 1:1:1 ratio and 2.4×10^−5 M bovine serum albumin. […]
# MRSA LUH15051 [4] = assay: Burn wound infection model, thermally wounded human skin equivalents, mupirocin-resistant MRSA LUH15051; format: cell-based, Staphylococcus aureus; details: compared with LL-37 and P60.4Ac, FIG. 5
# Procedure: as §4
# [5] = test system: Staphylococcus epidermidis; assay: Activity against Staphylococcus epidermidis; format: cell-based
# [6] = test system: (drug-resistant) Pseudomonas aeruginosa strains; assay: Activity against Pseudomonas aeruginosa; format: cell-based; details: various (drug-resistant) strains
# [7] = test system: (drug-resistant) Acinetobacter baumannii strains; assay: Activity against Acinetobacter baumannii; format: cell-based
# mycobacteria = assay: Activity against mycobacteria; format: cell-based
# [8] = test system: (fluconazole-resistant) Candida albicans; assay: Activity against Candida albicans; format: cell-based
# Aspergillus niger = assay: Activity against Aspergillus niger; format: cell-based
# [9] = test system: methicillin-resistant S. aureus biofilm; assay: Prevention of MRSA biofilm formation; format: cell-based; details: on plastic as well as biotic (wounded 3-D human skin model) surfaces
# [10] = test system: lipoteichoic acid (LTA), peptidoglycan (PG) and lipopolysaccharides (LPS); assay: Endotoxin neutralization
# Source text: The term “anti-inflammatory activity” of a polypeptide as used herein refers to inhibiting, reducing or preventing an inflammatory response in a subject that has been infected by microbes, e.g., bacteria, viruses, fungi, and/or parasites. Anti-inflammatory activity of polypeptides of the disclosure is achieved by inhibiting, reducing or preventing the release of pro-inflammatory microbial compounds, such as lipoteichoic acid (LTA), peptidoglycan (PG) and/or lipopolysaccharides (LPS). Anti-inflammatory activity can be measured by methods known in the art. One example of such method is a lipopolysaccharide neutralization assay. In this method, a polypeptide of the disclosure is mixed with 1 mg of lipopolysaccharides and incubated for 60 minutes. Thereafter, these mixtures were added to 4 times diluted fresh human blood and 18 hours thereafter, the level of cytokines (1L-8, 1L-12p40) in the blood sample are measured by ELISA.
substance,measurement,setting,value
Ac-LAREYKKIVEKLKRWLRQVLRTLR-NH2 (N-terminus and C-terminus assumed) [Peptide P10],activity compared with P60.4Ac,"MRSA LUH14616 [1]; MRSA LUH14616, surviving bacteria at similar concentration",approximately 100 times
same,IC99.9,"MRSA LUH14616 [1]; MRSA LUH14616 in PBS, 1 hour at 37° C., 99.9% Inhibitory Concentration, linear regression",0.59 µM
same,"effectiveness against MRSA bacteria in log phase, stationary bacteria and bacteria residing in biofilms","MRSA LUH14616 [1]; MRSA, strain not stated",highly effective
same,"killing of MRSA LUH14616, in words",MRSA LUH14616 [1],highest activity
same,"killing of MRSA LUH14616, in words",MRSA LUH14616 [1]; listed as Peptide 10,more effective than LL-37 and P60.4Ac
same,"killing of mupirocine-resistant MRSA, in words",MRSA LUH15051 [2],more effective than LL-37 and P60.4Ac
same,LC99.9 (μM) (50% plasma),S. aureus JAR,102.4 µM
same,LC99.9 (μM) (PBS),S. aureus JAR,1.6 µM
same,"eliminating MRSA from thermally wounded human skin equivalents, in words",MRSA LUH14616 [3],more effective than LL-37 and P60.4Ac
same,"eliminating mupirocine-resistant MRSA from thermally wounded human skin equivalents, in words",MRSA LUH15051 [4],more effective than LL-37 and P60.4Ac
same,effectiveness against Staphylococcus epidermidis,[5],highly effective
same,effectiveness against Pseudomonas aeruginosa,[6],highly effective
same,effectiveness against Acinetobacter baumannii,[7],highly effective
same,effectiveness against mycobacteria,mycobacteria,highly effective
same,effectiveness against Candida albicans,[8],highly effective
same,effectiveness against Aspergillus niger,Aspergillus niger,highly effective
same,prevention of MRSA biofilm formation,[9],able to prevent
same,"neutralization of endotoxin LTA, PG and LPS",[10],neutralizes
